Patent US9132098B2, “Stable nanocomposition comprising doxorubicin, process for the preparation thereof, its use and pharmaceutical compositions containing it” (BBS Nanotechnology Ltd., priority 2013, dated 2015)

Test system: SK-OV-3 human ovary adenocarcinoma cells
Assay: Comparative efficacy study in SK-OV-3 s.c. xenograft SCID mouse model of ovary cancer
Format: in vivo, SCID mice
Conditions: 78th day after tumor inoculation, total dose DOX 23, NP 17, NP-PEG 23 mg/kg
Method: Tumor was induced in mice by implanting SK-OV-3 human ovary adenocarcinoma cells s.c. in upper region of back of SCID mice and allowing the tumors to develop to appreciable size over 40 days (30 mm3). The comparative efficacy study of six i.v. injection (day 43, 50, 57, 65, 71 and 78) of 5% glucose, doxorubicin (DOX) 3.8 mg/kg, NP […] and NP-PEG 3.8 mg/kg) was evaluated over 104 days. In this table there are the tumor volume of mice on 78th day after tumor inoculation (data represent mean±SEM of five mice per_group) and body weight of mice on 78th day after tumor inoculation (Data represent mean±STDEV of five mice per group). The table below discloses the comparative efficacy study in SK-OV-3 s.c. xenograft SCID mouse model of ovary cancer.

Animal weight (six i.v. injections, mean±STDEV of five mice): 22.54 ± 0.77 g
Compound: COc1cccc2c1C(=O)c1c(O)c3c(c(O)c1C2=O)C[C@@](O)(C(=O)CO)C[C@@H]3O[C@H]1C[C@H](N)[C@H](O)[C@H](C)O1 [DOX]
Tumor volume (mm^3) (six i.v. injections (day 43-78), mean±SEM of five mice): 294.8 ± 216 mm^3
